Measured values published in ChEMBL document CHEMBL5126604, “Design, Synthesis, and Biological Evaluation of Pyrrole-2-carboxamide Derivatives as Mycobacterial Membrane Protein Large 3 Inhibitors for Treating Drug-Resistant Tuberculosis” (J Med Chem, 2022).

How the values were obtained:
[1] = test system: Mycobacterium tuberculosis; assay: microbe, parasite or virus in culture; conditions: Mycobacterium tuberculosis, 13946, 168 h
[2] = test system: Mycobacterium tuberculosis; assay: microbe, parasite or virus in culture; conditions: Mycobacterium tuberculosis, 14862, 168 h

Row | SMILES | MIC [1] [µg/mL] | MIC [2] [µg/mL]
1 | O=C(NC12CC3CC(CC(C3)C1)C2)c1cc(-c2ccc(F)nc2F)c[nH]1 | < 0.016 | < 0.016
2 | O=C(NC1C2CC3CC(C2)CC1C3)c1cc(-c2ccc(F)nc2F)c[nH]1 (stereo unspecified) | < 0.016 | < 0.016
3 | O=C(NC12CC3CC(CC(C3)C1)C2)c1cc(-c2ccc(F)cc2F)c[nH]1 | < 0.016 | < 0.016
